How the values were obtained:
Type in all cases: cell-based
CK1α = biological target: T1, CK1α (Homo sapiens, UniProt P48729+Q96SW2); assay: HiBiT degradation assay, CK1α, Procedure A
T1 construct: CSNK1A1-HiBit KI HEK293(LgBit) Cells; host or cells: HEK293(LgBit) knock-in cells
Procedure, shortened: (§1)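 Six-hour treatment at 37° C, ten doses between 10 μM and 0.005 μM, then HiBiT lytic luminescence. Fitted DC50 and Ymin.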

GSPT1 [1] = biological target: T2, GSPT1 (Homo sapiens, UniProt P15170+Q96SW2); assay: HiBiT degradation assay, GSPT1, Procedure B (Molt 4_hGSPT1_HiBIT cells); design: Molt 4_hGSPT1_HiBIT N-terminus tagged cells were generated using CRISPR technology; endogenous in cells; host or cells: Molt 4 cells, CRISPR-edited; conditions: six hours
T2 sequence (P15170 whole entry): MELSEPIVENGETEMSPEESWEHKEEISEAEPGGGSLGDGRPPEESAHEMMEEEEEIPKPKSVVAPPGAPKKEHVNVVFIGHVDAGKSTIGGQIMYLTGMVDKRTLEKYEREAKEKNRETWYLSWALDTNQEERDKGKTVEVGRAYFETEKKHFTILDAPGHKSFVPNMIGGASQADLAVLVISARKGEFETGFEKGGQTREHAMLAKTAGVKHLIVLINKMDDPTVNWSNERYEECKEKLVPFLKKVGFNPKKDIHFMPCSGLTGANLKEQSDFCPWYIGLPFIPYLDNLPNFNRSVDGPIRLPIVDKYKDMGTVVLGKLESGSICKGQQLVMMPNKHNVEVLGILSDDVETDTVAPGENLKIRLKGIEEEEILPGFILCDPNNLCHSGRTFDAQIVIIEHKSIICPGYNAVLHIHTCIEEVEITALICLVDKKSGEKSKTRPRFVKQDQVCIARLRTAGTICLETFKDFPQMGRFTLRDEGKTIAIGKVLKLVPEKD
T2 sequence (Q96SW2 whole entry): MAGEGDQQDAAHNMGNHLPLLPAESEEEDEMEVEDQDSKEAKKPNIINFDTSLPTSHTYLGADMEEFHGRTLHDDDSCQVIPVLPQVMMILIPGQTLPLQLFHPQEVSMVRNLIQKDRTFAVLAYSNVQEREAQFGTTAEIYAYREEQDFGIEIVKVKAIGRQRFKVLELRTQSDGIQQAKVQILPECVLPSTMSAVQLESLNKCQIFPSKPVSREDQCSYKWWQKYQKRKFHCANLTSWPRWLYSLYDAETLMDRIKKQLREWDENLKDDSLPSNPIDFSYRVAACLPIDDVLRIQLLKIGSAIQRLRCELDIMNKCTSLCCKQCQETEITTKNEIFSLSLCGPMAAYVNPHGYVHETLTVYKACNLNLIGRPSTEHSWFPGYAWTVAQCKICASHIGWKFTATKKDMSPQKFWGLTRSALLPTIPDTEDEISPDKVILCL
T2 sequence (Q16531 whole entry partner): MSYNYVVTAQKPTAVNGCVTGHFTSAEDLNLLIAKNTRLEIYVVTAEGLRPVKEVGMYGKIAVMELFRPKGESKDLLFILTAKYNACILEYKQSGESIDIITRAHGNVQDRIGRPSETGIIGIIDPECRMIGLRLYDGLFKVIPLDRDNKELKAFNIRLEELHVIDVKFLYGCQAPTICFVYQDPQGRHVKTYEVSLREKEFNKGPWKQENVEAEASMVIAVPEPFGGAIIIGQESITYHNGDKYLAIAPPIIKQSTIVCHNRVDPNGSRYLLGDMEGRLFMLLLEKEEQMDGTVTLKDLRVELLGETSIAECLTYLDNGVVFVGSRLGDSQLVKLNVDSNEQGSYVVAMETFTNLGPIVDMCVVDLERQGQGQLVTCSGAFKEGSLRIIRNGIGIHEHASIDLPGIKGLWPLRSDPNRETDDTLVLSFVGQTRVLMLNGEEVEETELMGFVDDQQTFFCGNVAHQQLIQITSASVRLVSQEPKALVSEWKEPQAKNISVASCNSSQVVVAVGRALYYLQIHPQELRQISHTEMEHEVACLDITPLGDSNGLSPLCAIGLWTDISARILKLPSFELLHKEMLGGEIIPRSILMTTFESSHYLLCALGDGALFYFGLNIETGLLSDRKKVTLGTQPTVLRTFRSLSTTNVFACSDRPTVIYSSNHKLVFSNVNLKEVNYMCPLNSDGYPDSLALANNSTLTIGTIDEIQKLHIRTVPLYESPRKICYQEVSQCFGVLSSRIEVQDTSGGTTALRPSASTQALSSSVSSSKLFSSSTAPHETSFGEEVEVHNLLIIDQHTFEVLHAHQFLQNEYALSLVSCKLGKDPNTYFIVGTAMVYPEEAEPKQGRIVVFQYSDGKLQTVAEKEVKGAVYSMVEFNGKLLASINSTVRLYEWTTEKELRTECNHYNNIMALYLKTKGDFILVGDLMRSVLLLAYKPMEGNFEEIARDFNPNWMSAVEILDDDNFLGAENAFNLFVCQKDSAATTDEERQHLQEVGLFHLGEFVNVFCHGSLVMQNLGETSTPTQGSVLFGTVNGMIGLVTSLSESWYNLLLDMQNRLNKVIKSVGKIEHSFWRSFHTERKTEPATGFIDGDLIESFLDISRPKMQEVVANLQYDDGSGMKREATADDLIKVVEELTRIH
Method: Molt 4_hGSPT1_HiBIT N-terminus tagged cells were generated using CRISPR technology. Cells were maintained in RPMI media (Thermo Fisher Scientific, Catalog #11875-093) containing 10% Fetal Bovine Serum (Thermo Fisher Scientific, Catalog #16140071) 1% Penicillin-Streptomycin (Thermo Fisher Scientific, Catalog #25200056). Cells were maintained at 37° C. in a 5% CO2 environment.
Compounds were spotted onto Cornin 384-Well, Cell Culture-Treated, Flat-Bottom, Low Flange Microplate (Fisher Scientific, Catalog #07-201-013) using a Tecan D300e digital dispenser. Ten-point dose response curves spanning from 10 μM to 0.005 μM with a 0.1% DMSO tolerance were used.
Cells were centrifuged for 5 minutes at 1200 RPMs. Cell culture media was aspirated off and cells were resuspended with RPMI+10% FBS. Cell density was determined using a Denovix CellDrop BF cell counter. Cell density was adjusted to 1×10^6 cells/ml. 40 μl of cells was added to compound treated tissue culture plates and incubated for six hours at 37° C. After six hours, cell culture plates were removed from tissue culture incubator and cooled to room temperature. 40 μl of Nano-GloHiBiT Lytic Detection Reagent (Promega, Catalog #N3040) was added to each well. Plates were placed on an orbital shaker (600 rpm) for 20 minutes. Luminescence was measured using an Envsion plate reader (Perkin Elmer). IC50 curves and Ymin were generated using a 4-parameter curve fit with GraphPad Prism software (Prism Corporation).
Results from the HiBiT assay (DC50 (nM) and Ymin (% remaining)) are shown below. All CK1α data was generated according to Procedure A. GSPT1 data for Examples 1-600, 603-620 and 703-705 was generated according to Procedure A. GSPT1 data for Examples 601, 621-702 and 706-735 was generated according to Procedure B.

GSPT1 [2] = biological target: T2, GSPT1; assay: HiBiT degradation assay, GSPT1, Procedure A; design: HiBit-GSPT1 KI HEK293(LgBit) Cells; host or cells: HEK293(LgBit) knock-in cells
Procedure, shortened: as §1

T1 sequence (P48729 whole entry): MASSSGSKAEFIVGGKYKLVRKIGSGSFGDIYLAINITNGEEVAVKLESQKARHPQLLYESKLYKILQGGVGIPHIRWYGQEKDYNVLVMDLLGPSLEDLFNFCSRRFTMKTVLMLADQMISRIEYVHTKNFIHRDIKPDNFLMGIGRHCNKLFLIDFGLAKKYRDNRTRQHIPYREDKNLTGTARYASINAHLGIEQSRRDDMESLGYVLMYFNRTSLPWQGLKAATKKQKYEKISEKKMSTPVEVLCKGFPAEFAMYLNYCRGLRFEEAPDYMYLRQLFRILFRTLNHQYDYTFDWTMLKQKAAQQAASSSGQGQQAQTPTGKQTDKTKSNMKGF
T1 sequence (Q96SW2 whole entry): as the sequence (Q96SW2 whole entry) above
T1 sequence (Q16531 whole entry partner): as the sequence (Q16531 whole entry partner) above

Row | Compound | CK1α Ymin (CK1α; six hours) | DC50 (CK1α; six hours) [nM] | DC50 (GSPT1 [1]) [nM] | GSPT1 Ymin (GSPT1 [1]) | CK1α Ymin (CK1α; six hours incubation) | DC50 (CK1α; six hours incubation) [nM] | DC50 (GSPT1 [2]; six hours incubation) [nM] | GSPT1 Ymin (GSPT1 [2]; six hours incubation) | DC50 (GSPT1 [2]; six hours) [nM] | GSPT1 Ymin (GSPT1 [2]; six hours)
1 | O=C1CCC(N2Cc3cc(-c4nc(C5CC5)oc4-c4ccccc4)ccc3C2=O)C(=O)N1 (stereo not drawn) [Example 734, 3-(5-(2-cyclopropyl-5-phenyloxazol-4-yl)-1-oxoisoindolin-2-yl)piperidine-2,6-dione] | C (C = 0-10% remaining) | < 25 | ≥ 25 | F (F = >75-100% remaining) | – | – | – | – | – | –
2 | Cn1cc(-c2ccc3c(c2)CN(C2CCC(=O)NC2=O)C3=O)nc1-c1ccc(C#N)c(F)c1 (stereo not drawn) [Example 655] | E (E = >25-75% remaining) | < 25 | ≥ 25 | F (F = >75-100% remaining) | – | – | – | – | – | –
3 | Cn1cc(-c2ccc3c(c2)CN(C2CCC(=O)NC2=O)C3=O)nc1-c1cncc2ccccc12 (stereo not drawn) [Example 659] | E (E = >25-75% remaining) | < 25 | ≥ 25 | F (F = >75-100% remaining) | – | – | – | – | – | –
4 | Cn1cc(-c2ccc3c(c2)CN(C2CCC(=O)NC2=O)C3=O)nc1-c1ccc(F)c(Cl)c1 (stereo not drawn) [Example 645] | D (D = >10- 25% remaining) | < 25 | ≥ 25 | F (F = >75-100% remaining) | – | – | – | – | – | –
5 | Cn1cc(-c2ccc3c(c2)CN(C2CCC(=O)NC2=O)C3=O)nc1C12CC3CC(CC(C3)C1)C2 (stereo not drawn) [Example 711, 3-[5-[2-(1-adamantyl)-1-methyl-imidazol-4-yl]-1-oxo-isoindolin-2-yl]piperidine-2,6-dione] | E (E = >25-75% remaining) | < 25 | ≥ 25 | F (F = >75-100% remaining) | – | – | – | – | – | –
6 | Cc1ccc(Cl)cc1-c1nc(-c2ccc3c(c2)CN(C2CCC(=O)NC2=O)C3=O)cn1C (stereo not drawn) [Example 640] | C (C = 0-10% remaining) | < 25 | ≥ 25 | F (F = >75-100% remaining) | – | – | – | – | – | –
7 | Cn1cc(-c2ccc3c(c2)CN(C2CCC(=O)NC2=O)C3=O)nc1-c1cccc2cnccc12 (stereo not drawn) [Example 672] | E (E = >25-75% remaining) | < 25 | < 25 | F (F = >75-100% remaining) | – | – | – | – | – | –
8 | Cn1cc(-c2ccc3c(c2)CN(C2CCC(=O)NC2=O)C3=O)nc1-c1cccc(C#N)c1 (stereo not drawn) [Example 632] | D (D = >10- 25% remaining) | < 25 | ≥ 25 | F (F = >75-100% remaining) | – | – | – | – | – | –
9 | Cn1cc(-c2ccc3c(c2)CN(C2CCC(=O)NC2=O)C3=O)nc1-c1cccc(OCc2ccccc2)c1 (stereo not drawn) [Example 681] | C (C = 0-10% remaining) | < 25 | < 25 | D (D = >10- 25% remaining) | – | – | – | – | – | –
10 | Cn1cc(-c2ccc3c(c2)CN(C2CCC(=O)NC2=O)C3=O)nc1-c1cccc(OC(F)(F)F)c1 (stereo not drawn) [Example 637] | D (D = >10- 25% remaining) | < 25 | < 25 | F (F = >75-100% remaining) | – | – | – | – | – | –
11 | Cn1cc(-c2ccc3c(c2)CN(C2CCC(=O)NC2=O)C3=O)nc1-c1ccc(C#N)cc1 (stereo not drawn) [Example 633] | D (D = >10- 25% remaining) | < 25 | < 25 | F (F = >75-100% remaining) | – | – | – | – | – | –
12 | COc1ccc(C#N)cc1-c1nc(-c2ccc3c(c2)CN(C2CCC(=O)NC2=O)C3=O)cn1C (stereo not drawn) [Example 684] | E (E = >25-75% remaining) | < 25 | < 25 | F (F = >75-100% remaining) | – | – | – | – | – | –
13 | Cn1cc(-c2ccc3c(c2)CN(C2CCC(=O)NC2=O)C3=O)nc1-c1ccc(N2CCNCC2)cc1 (stereo not drawn) [Example 721] | D (D = >10- 25% remaining) | ≥ 25 | ≥ 25 | F (F = >75-100% remaining) | – | – | – | – | – | –
14 | Cn1cc(-c2ccc3c(c2)CN(C2CCC(=O)NC2=O)C3=O)nc1-c1cccc(C(N)=O)c1 (stereo not drawn) [Example 669] | E (E = >25-75% remaining) | ≥ 25 | ≥ 25 | F (F = >75-100% remaining) | – | – | – | – | – | –
15 | Cn1cc(-c2ccc3c(c2)CN(C2CCC(=O)NC2=O)C3=O)nc1-c1ccc(Cl)c(C(F)(F)F)c1 (stereo not drawn) [Example 667] | E (E = >25-75% remaining) | < 25 | < 25 | F (F = >75-100% remaining) | – | – | – | – | – | –
16 | Cn1cc(-c2ccc3c(c2)CN(C2CCC(=O)NC2=O)C3=O)nc1-c1ccc(CO)cc1 (stereo not drawn) [Example 657] | D (D = >10- 25% remaining) | < 25 | ≥ 25 | F (F = >75-100% remaining) | – | – | – | – | – | –
17 | Cn1cc(-c2ccc3c(c2)CN(C2CCC(=O)NC2=O)C3=O)nc1-c1ccc2nccn2c1 (stereo not drawn) [Example 658] | D (D = >10- 25% remaining) | ≥ 25 | ≥ 25 | F (F = >75-100% remaining) | – | – | – | – | – | –
18 | Cn1ncc(-c2ccc3c(c2)CN(C2CCC(=O)NC2=O)C3=O)c1C1=Cc2ccccc2C1 (stereo not drawn) [Example 700] | E (E = >25-75% remaining) | < 25 | < 25 | F (F = >75-100% remaining) | – | – | – | – | – | –
19 | Cn1c(C2CCC2)nc(-c2ccc3c(c2)CN(C2CCC(=O)NC2=O)C3=O)c1-c1ccccc1 (stereo not drawn) [Example 727, 3-(5-(2-cyclobutyl-1-methyl-5-phenyl-1H-imidazol-4-yl)-1-oxoisoindolin-2-yl)piperidine-2,6-dione] | C (C = 0-10% remaining) | < 25 | ≥ 25 | F (F = >75-100% remaining) | – | – | – | – | – | –
20 | Cn1ncc(-c2ccc3c(c2)CN(C2CCC(=O)NC2=O)C3=O)c1C1=Cc2ccccc2CC1 (stereo not drawn) [Example 701] | E (E = >25-75% remaining) | ≥ 25 | ≥ 25 | F (F = >75-100% remaining) | – | – | – | – | – | –
21 | Cn1ncc(-c2ccc3c(c2)CN(C2CCC(=O)NC2=O)C3=O)c1C1=CCCC1 (stereo not drawn) [Example 691] | E (E = >25-75% remaining) | < 25 | ≥ 25 | F (F = >75-100% remaining) | – | – | – | – | – | –
22 | Cc1nocc1-c1c(-c2ccc3c(c2)CN(C2CCC(=O)NC2=O)C3=O)ncn1C (stereo not drawn) [Example 320] | – | – | – | – | D (D = >10- 25% remaining) | < 25 | ≥ 25 | F (F = >75-100% remaining) | – | –
23 | Cc1cc(-c2nc(-c3ccc4c(c3)CN(C3CCC(=O)NC3=O)C4=O)cn2C)ccc1Cl (stereo not drawn) [Example 574] | C (C = 0-10% remaining) | < 25 | – | – | – | – | – | – | ≥ 25 | E (E = >25-75% remaining)
24 | Cn1ncc(-c2ccc3c(c2)CN(C2CCC(=O)NC2=O)C3=O)c1-c1ccc2nccnc2c1 (stereo not drawn) [Example 462] | E (E = >25-75% remaining) | ≥ 25 | – | – | – | – | – | – | ≥ 25 | F (F = >75-100% remaining)

Reference: patent US20240158370A1, “CK1 alpha AND DUAL CK1 alpha / GSPT1 DEGRADING COMPOUNDS” (Innovo Therapeutics, Inc., priority 2022, published 2024)
